Experimental data from patent US9045524B2, “Selective caspase inhibitors and uses thereof” (NOVAGENESIS FOUNDATION, priority 2009, dated 2015).

Assays:
Caspase-7 = Caspase-7 (Homo sapiens (Human), UniProt P55210); assay: Caspase-7 Inhibitor Drug Screening Kit, fluorometric (AFC liberation); type: biochemical; conditions: 30-minute incubation at 37° C.; approximations of the average values; read-out: Caspase enzymatic activity, IC50 (uM) Caspase 7
Experimental: (§1) The level of inhibition of caspase-1, -3, -5, -7, -9 activity was determined by comparison of the relative fluorescence intensity in samples with or without the compound.

Caspase-5 = Caspase-5 (Homo sapiens (Human), UniProt P51878); assay: Caspase-5 Inhibitor Drug Screening Kit, fluorometric (AFC liberation); type: biochemical; conditions: 30-minute incubation at 37° C.; approximations of the average values; read-out: Caspase enzymatic activity, IC50 (uM) Caspase 5
Caspase-5, sequence (P51878 137-434): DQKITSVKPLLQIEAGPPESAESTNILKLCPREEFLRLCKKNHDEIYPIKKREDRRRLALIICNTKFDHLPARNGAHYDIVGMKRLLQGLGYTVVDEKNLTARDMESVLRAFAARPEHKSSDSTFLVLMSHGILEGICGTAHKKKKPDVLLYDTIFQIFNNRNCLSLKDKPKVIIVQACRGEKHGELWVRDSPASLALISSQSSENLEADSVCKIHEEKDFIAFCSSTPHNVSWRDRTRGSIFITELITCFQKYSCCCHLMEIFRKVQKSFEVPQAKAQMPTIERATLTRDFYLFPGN
Experimental: as §1

Caspase-1 = Caspase-1 (Homo sapiens (Human), UniProt P29466); assay: Caspase-1 Inhibitor Drug Screening Kit, fluorometric (AFC liberation); type: biochemical; conditions: 30-minute incubation at 37° C.; approximations of the average values; read-out: Caspase enzymatic activity, IC50 (uM) Caspase 1
Caspase-1, sequence (P29466 120-404): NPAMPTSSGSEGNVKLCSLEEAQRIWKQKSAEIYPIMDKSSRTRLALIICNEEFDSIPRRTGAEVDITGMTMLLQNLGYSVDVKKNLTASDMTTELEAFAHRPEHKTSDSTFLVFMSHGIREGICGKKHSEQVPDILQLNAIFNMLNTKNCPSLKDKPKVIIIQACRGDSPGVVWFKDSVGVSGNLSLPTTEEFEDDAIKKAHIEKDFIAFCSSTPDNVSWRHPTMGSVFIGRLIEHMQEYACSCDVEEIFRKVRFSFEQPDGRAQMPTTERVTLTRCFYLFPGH
Experimental: as §1

Caspase-10 = Caspase-10 (Homo sapiens (Human), UniProt Q92851); assay: Fluorometric enzymatic assay, active recombinant Caspase-10; conditions: read-out: IC50 values (μM) Caspase-10; 10-point titration 0.1 nM to 3.3 μM, 30-minute incubation at 37° C.
Caspase-10, sequence (Q92851 220-415): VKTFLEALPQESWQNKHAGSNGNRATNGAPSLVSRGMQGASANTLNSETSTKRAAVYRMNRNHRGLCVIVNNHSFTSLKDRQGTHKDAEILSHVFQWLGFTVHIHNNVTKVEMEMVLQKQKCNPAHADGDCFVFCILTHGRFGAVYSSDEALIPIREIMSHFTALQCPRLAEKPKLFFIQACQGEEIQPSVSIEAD
Caspase-10, sequence (Q92851 416-521): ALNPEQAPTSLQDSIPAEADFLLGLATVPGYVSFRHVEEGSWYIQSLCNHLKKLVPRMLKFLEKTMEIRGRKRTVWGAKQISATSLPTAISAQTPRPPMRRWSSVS
Experimental: Each dilution of the test compounds was tested in duplicates, whereas the DMSO or Z-VAD-FMK controls were tested in triplicates. […] The inhibition efficiency and the IC50 values of the test compounds were then determined by comparing the fluorescence intensity (FI) of the test compounds with that of the DMSO control.

Glo3/7 = Glo3/7 assay; type: biochemical
EAE in C57BL/6 mice = assay: Chronic EAE mouse model (MOG35-55 immunization), daily clinical score and body weight; type: in vivo; parameters: key to Delay in onset of the disease / Reduction in severity of the disease / Reduction in body weight loss: +++: high level improvement; ++: moderate improvement; +: small improvement; −: no improvement
How it was run: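 Female C57BL/6 mice, 7–8 weeks old, were immunized s.c. with 100 μg MOG35-55 in CFA containing M. tuberculosis H37Ra, plus 200 ng pertussis toxin i.p. on days 0 and 2. […], compound in 2.5% DMSO/PBS was given i.p.; vehicle for placebo. Clinical score (0–5) and body weight were recorded daily.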

Caspase-6 = Caspase-6 (Homo sapiens (Human), UniProt P55212); assay: Fluorometric enzymatic assay, active recombinant Caspase-6; type: biochemical; conditions: 10-point titration 0.1 nM to 3.3 μM, 30-minute incubation at 37° C.; read-out: IC50 values (μM) Caspase-6
Caspase-6, sequence (P55212 24-179): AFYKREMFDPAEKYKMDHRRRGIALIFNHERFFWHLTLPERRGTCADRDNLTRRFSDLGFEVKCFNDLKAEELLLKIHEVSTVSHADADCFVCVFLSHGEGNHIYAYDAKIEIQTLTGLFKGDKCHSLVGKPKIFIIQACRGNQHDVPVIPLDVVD
Caspase-6, sequence (P55212 194-293): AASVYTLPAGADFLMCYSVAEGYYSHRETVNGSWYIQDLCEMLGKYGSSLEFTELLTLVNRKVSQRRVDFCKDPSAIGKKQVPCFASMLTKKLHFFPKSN
Experimental: . In brief, each compound was serially diluted for a final test concentration range of 0.1 nM to 3.3 μM (10-point titration). Each active recombinant Caspase (Active Recombinant Caspase Set IV™ (BioVision, Cat# K233-10-25)) was added to the respective wells of the 96-well High Efficiency™ plates (Molecular Devices, Cat#75-000-0005), followed by the addition of the diluted test compounds. DMSO (Final=1%) or Z-VAD-FMK (Caspase-Family Inhibitor, Z-VAD-FMK (BioVision, Cat#1010-100), Final concentration=20 uM) was added in the designated wells as a background control or positive inhibitor control respectively. Each dilution of the test compounds was tested in duplicates, whereas the DMSO or Z-VAD-FMK controls were tested in triplicates. The synthetic peptide substrate specific for each Caspase (BioVision) was then added to the respective wells, which when cleaved by the active caspase releases free AFC that can be quantified by fluorometry. After a 30-minute incubation at 37° C., the plates were read using the Flexstation 3™ with a 400 nm excitation filter and a 505 nm emission filter (cutoff at 495 nm). The inhibition efficiency and the IC50 values of the test compounds were then determined by comparing the fluorescence intensity (FI) of the test compounds with that of the DMSO control.
The SoftMax Pro Software™ (v5.2 rev C, Molecular Devices) was used for data analysis. The % Inhibition is calculated by: % Inhibition=[FI(DMSO)−FI(test sample)/FI(DMSO)]×100. The % Inhibition vs. Log(concentration) was plotted, and the curve was fitted using the 5-parameter fit of the software.

[1] = FIG. 1, i.p. from day 10 to 16 post immunization, versus placebo
[2] = FIG. 3, i.p. from day 14 to 19 post immunization, versus placebo
[3] = FIG. 4, administration for 15 days from day 12 post-immunization, versus placebo
[4] = average overall effects on the EAE model, i.p.

Caspase-7, sequence (P55210 whole entry): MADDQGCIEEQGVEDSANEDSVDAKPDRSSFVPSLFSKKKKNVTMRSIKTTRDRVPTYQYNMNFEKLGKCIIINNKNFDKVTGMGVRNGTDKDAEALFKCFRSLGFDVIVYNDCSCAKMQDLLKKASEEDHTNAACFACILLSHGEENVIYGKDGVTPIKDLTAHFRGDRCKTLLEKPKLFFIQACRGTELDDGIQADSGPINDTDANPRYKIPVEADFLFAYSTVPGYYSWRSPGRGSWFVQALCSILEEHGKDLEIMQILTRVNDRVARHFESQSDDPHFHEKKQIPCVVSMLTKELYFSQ

## CC(C)[C@H](NC(=O)[C@@H](NC(=O)[C@H](CC(=O)O)NC(=O)OCc1ccccc1)c1ccccc1)C(=O)N[C@H](/C=C/S(C)(=O)=O)CC(=O)O [Compound 53, Z-Asp-Phg-Val-Aspmethyl vinyl sulfone]
Caspase-7
  IC50: 0.8 µM
Caspase-5
  IC50: > 10 µM
Caspase-1
  IC50: 2 µM
Caspase-10
  IC50: > 3.33 µM
Glo3/7
  IC50: 0.1 µM
EAE in C57BL/6 mice; [1]
  Cumulative clinical score: significantly lower compared to placebo
  Disease onset: delayed
  Loss of body weight: less than the placebo
  clinical severity of the disease: reduced significantly
  maximal clinical score: significantly lower compared to placebo
EAE in C57BL/6 mice; FIG. 3, i.p. from day 14 to 19 post immunization, twice the concentration of compound 53
  delay of the clinical score (symptoms of EAE): delayed significantly the clinical score
EAE in C57BL/6 mice; [2]
  Loss of body weight: less than in the placebo group
  effects on the clinical course of EAE: ameliorating effects
EAE in C57BL/6 mice; [3]
  Loss of body weight: less than placebo
  severity of the disease: began to reverse the effects of the disease and reduced the severity of the disease continuously
EAE in C57BL/6 mice; [4]
  Delay in onset of the disease: +++
  Reduction in body weight loss: +++
  Reduction in severity of the disease: +++
Caspase-6
  IC50: > 3.33 µM
